According to article PMC5399005, “Degradation of lignin β‐aryl ether units in Arabidopsis thaliana expressing LigD, LigF and LigG from Sphingomonas paucimobilis SYK‐6” (Plant Biotechnology Journal, 2016):

How the values were obtained:
Format in all cases: biochemical
LigD = target: T1, LigD (Sphingobium sp. SYK-6, UniProt Q01198); test: LC-MS product detection with leaf extract of transgenic Arabidopsis; conditions: 0.5 mM GGE, 1 mM NAD+, 1 mM GSH, 100 mM phosphate pH 7.5, room temperature, 16 h; product MPHPV
T1 sequence (Q01198 1-305): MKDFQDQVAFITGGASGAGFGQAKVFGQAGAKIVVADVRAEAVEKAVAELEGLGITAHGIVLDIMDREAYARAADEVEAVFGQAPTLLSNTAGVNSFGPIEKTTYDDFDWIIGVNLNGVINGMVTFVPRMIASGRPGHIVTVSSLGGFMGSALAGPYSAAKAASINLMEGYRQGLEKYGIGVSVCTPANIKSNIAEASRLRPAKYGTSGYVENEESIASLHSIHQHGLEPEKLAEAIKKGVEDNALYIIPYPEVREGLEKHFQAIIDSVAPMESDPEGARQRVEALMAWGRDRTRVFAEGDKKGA

LigG = target: T2, LigG (Sphingomonas paucimobilis, UniProt Q9WXJ9); test: as above; conditions: GS-HPV from LigF reaction mixture, GSH, 100 mM phosphate pH 7.5
T2 construct: codon-optimised, barley alpha-amylase signal peptide added, expressed in Arabidopsis (crude leaf extract)
T2 sequence (Q9WXJ9 1-265): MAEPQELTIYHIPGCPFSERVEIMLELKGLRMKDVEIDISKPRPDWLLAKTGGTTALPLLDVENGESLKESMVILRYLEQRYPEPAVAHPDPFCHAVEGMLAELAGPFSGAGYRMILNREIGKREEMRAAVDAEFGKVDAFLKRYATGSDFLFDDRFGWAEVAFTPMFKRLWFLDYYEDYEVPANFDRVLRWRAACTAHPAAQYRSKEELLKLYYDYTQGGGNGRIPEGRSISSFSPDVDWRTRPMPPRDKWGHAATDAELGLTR

LigF = target: T3, LigF (Sphingobium sp. SYK-6, UniProt P30347); test: LC-MS product detection with leaf extract of transgenic Arabidopsis (also E. coli extract); conditions: 0.5 mM MPHPV, 1 mM GSH, 1 mM NAD+, 100 mM phosphate pH 7.5, room temperature, 16 h; product GS-HPV
T3 construct: also pETSTREP in E. coli BL21(DE3)
T3 sequence (P30347 1-257): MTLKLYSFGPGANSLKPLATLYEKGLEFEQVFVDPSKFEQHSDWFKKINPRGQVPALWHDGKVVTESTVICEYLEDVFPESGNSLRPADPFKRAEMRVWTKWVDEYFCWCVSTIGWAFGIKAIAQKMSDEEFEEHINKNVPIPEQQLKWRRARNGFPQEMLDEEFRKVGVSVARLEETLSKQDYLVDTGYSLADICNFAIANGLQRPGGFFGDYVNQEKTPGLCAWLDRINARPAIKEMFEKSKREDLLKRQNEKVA

COc1cc(C(O)C(CO)Oc2ccccc2OC)ccc1O (stereo not drawn) [GGE]
LC-MS product detection with leaf extract of transgenic Arabidopsis (LigD): GGE, MPHPV and GS‐HPV were used as a substrate to monitor the catalytic function

COc1cc(C(=O)C(CO)SC[C@H](NC(=O)CC[C@H](N)C(=O)O)C(=O)NCC(=O)O)ccc1O (stereo partly drawn) [GS-HPV]
LC-MS product detection with leaf extract of transgenic Arabidopsis (LigG): The reaction mixture obtained contained mainly GS‐HPV and was used to test for LigG activity

COc1cc(C(=O)C(CO)Oc2ccccc2OC)ccc1O (stereo not drawn) [S4, MPHPV]
LC-MS product detection with leaf extract of transgenic Arabidopsis (also E. col) (LigF): produced enzymatically by incubation of MPHPV with protein extracts of Escherichia coli expressing LigF
